In brackets after ≈: the same amount, converted by molar mass. Like-named read-outs stand apart in the source and are kept apart here.
Legend:
Schistosoma japonicum = test: effect in mice infected with Schistosoma japonicum; assay type: in vivo; conditions: age of worm 35 days, 400 mg/kg x 1
[1] = tested on: Schistosoma mansoni 21-day-old schistosomules; test: effect on 21-day-old schistosomules in mice; assay type: in vivo; conditions: single 200 mg/kg per os, female mice
Protocol: All groups were killed 4 weeks after treatment and the liver and intestine were removed and separated. The liver and intestine were compressed and alive male and female worms could be seen and counted. The effect of the compounds was evaluated by mean total and female worm burden.

[2] = tested on: Schistosoma mansoni adult schistosomes (49-day-old); test: effect on adult schistosomes (49-day-old) in mice; assay type: in vivo; conditions: single 400 mg/kg per os
Protocol: Mice were infected with 100 Schistosoma mansoni cercariae […]. Each group was treated per os with OZ compounds at single doses of 200, 400, and 600 mg/kg. […] All groups were killed 4 weeks after treatment and the liver and intestine were removed and separated. The liver and intestine were compressed and alive male and female worms could be seen and counted.

[3] = tested on: ANKA strain of Plasmodium berghei; test: single dose ED50/ED90/ED99 determinations in infected mice; assay type: in vivo; conditions: single dose po in SSV, mice, percent reduction in parasitemia on day three post-infection
How it was run: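 Mice (Moro SPF or NMRI, n=3 per group) infected with P. berghei ANKA received a single dose on day 1 post-infection, vehicle 0.5% CMC/0.5% benzyl alcohol/0.4% Tween 80/0.9% NaCl in water. Read-out is percent reduction in parasitemia on day 3; ED values by nonlinear fitting.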

P. berghei ANKA strain [4] = test: treatment: 3x3 mg/kg and 3x1 mg/kg po divided doses in infected mice; assay type: in vivo, Plasmodium berghei; conditions: for Activity (%) p.o. SSV: percent reduction of parasitemia day 4
How it was run: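 NMRI mice infected i.v. with 2×10^7 P. berghei ANKA-parasitized erythrocytes on day 0, then dosed orally in SSV vehicle at 3×3 or 3×1 mg/kg on days 1–3. Day-4 Giemsa smears gave percent parasitemia reduction versus untreated controls; survival to day 30 counted as cure.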

P. berghei ANKA strain [5] = test: prophylactic activity, single 100 mg/kg po dose before infection; assay type: in vivo, Plasmodium berghei; conditions: for Prophylactic Activity (%): reduction of parasitemia day 3 post-infection
Protocol: Moro NMRI male mice (Fü Albino specific pathogen free) weighing 18±2 g were infected intravenously (i.v.) with 2×10^7 P. berghei ANKA strain-infected erythrocytes from donor mice on day 0 of the experiment. From donor mice with circa 30% parasitemia, heparinized blood was taken and diluted in physiological saline to 10^8 parasitized erythrocytes per ml. An aliquot (0.2 ml) of this suspension was injected i.v. into experimental and control groups of mice. In untreated control mice, parasitemia rose regularly to 40 to 50% by day 3 post-infection and 70 to 80% by day 4 post-infection. The mice died between days 5 and 7 post-infection. Throughout the experiments, mice were kept in groups of three or five animals in Makrolon type II cages in an air-conditioned animal room at 22 to 23° C. A diet with p-aminobenzoic acid (PABA) of 45 mg (NAFAG FUTTER© food N^o 9009 PAB-45) per kg of body weight, and tap water is available ad libitum.
OZ compounds were prepared at an appropriate concentration, either as a solution or a suspension containing SSV (0.5% w/v CMC, 0.5% v/v benzyl alcohol, 0.4% v/v Tween 80, and 0.9% w/v sodium chloride in water). They were administered per os (p.o.) in a total volume of 0.01 ml per gram of mouse. The activity of the compound was determined by a variety of methods outlined in subsequent sections. Survival time was also recorded, and survival to day 30 post-infection was considered to be a cure.
Prophylactic activities of the compounds were compared after administering po single dose of 100 mg/kg to different groups of five animals at various times before infection. All groups including an untreated control group, were then infected at the same time. Parasitemia was determined for each animal on day 3 post-infection, and percent of reduction of the level of parasitemia compared to levels for animals given no drug is determined.

[6] = tested on: P. falciparum NF54 strain (sensitive to standard antimalarials); test: semiautomated microdilution assay, [3H]-hypoxanthine incorporation, NF54 strain; assay type: cell-based, Plasmodium falciparum; conditions: NF54 strain, 72 h incubation
How it was run: (§1)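 Logit regression analysis was used to estimate IC50 values. Parasites were intraerythrocytic forms from asynchronous stock cultures, and compounds were tested by semiautomated microdilution.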

[7] = tested on: ANKA strain of P. berghei; test: single dose STI in vivo screen in infected mice; set-up: species or system Plasmodium berghei
How it was run: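 Groups of 3-5 Moro SPF or NMRI mice infected with the ANKA strain of P. berghei received a single dose of trioxolane on day one post-infection. The compound was given in 3% ethanol and 7% Tween 80 or in SSV (0.5% w/v CMC, 0.5% v/v benzyl alcohol, 0.4% v/v Tween 80, 0.9% w/v sodium chloride in water). Antimalarial activity was scored as percent reduction in parasitemia on day three and as survival time versus untreated controls. Survival to day 30 counted as cure.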

[8] = tested on: parasitemia (malaria infection); test: onset of action and recrudescence experiments; assay type: in vivo; conditions: for Time of Recrudescence: single 100 mg/kg po (SSV) on day +3 post-infection, recrudescence = >5% parasitemia, followed up to 60 days, (n/5) = animals
Protocol: The onset of drug action was determined after a single fixed dose of 100 mg/kg (SSV vehicle) po to groups of five animals on day +3 post-infection (day 0).

[9] = tested on: P. falciparum K1 strain (Thailand resistant to chloroquine); test: semiautomated microdilution assay, [3H]-hypoxanthine incorporation, K1 strain; assay type: cell-based, Plasmodium falciparum; conditions: K1 strain, 72 h incubation
How it was run: as §1

dosing in rats = assay type: in vivo; conditions: rat
From the text: (§2) Artesunate is listed as a reference compound.

dosing in dogs = assay type: in vivo; conditions: dog
From the text: as §2

[10] = chemical properties of OZ277 salts; conditions: salt of OZ277
[11] = 3 × 1 mg/kg days 1, 2, 3 post-infection
[12] = 3 × 3 mg/kg days 1, 2, 3 post-infection
[13] = single 100 mg/kg po 24 h before infection

Structure (SMILES)	% reduction of schistosomule growth at day 21 after per os application of 200 mg/kg, FWR (%) [1]	% reduction of schistosomule growth at day 21 after per os application of 200 mg/kg, TWR (%) [1]	% reduction of adult worms growth at day 49 after per os application of 400 mg/kg, TWR (%) [2]	ED90 [3]	ED99 [3]	Activity (%) p.o. SSV (P. berghei ANKA strain [4]; [11])	Activity (%) p.o. SSV (P. berghei ANKA strain [4]; [12])	Prophylactic Activity (%) (P. berghei ANKA strain [5]; [13])	Prophylactic Activity (%) (P. berghei ANKA strain [5]; single 100 mg/kg po at 0 h)	Time of Recrudescence [8]	IC50 (ng/ml) K1 [9]	IC50 (ng/ml) NF54 [6]	Chemical Stability [10]	Crystallinity [10]	Particle size (90% of particles less than) [10]	Physical stability [10]	Stability in analytical solution (up to 24 hrs) [10]	other results
CO[C@H]1O[C@@H]2O[C@@]3(C)CC[C@H]4[C@H](C)CC[C@@H]([C@H]1C)[C@@]24OO3 [AM, artemether, reference compound]	(n4) 85%	(n4) 85%	53%	4.2 mg/kg	7.1 mg/kg	51%	86%	0%	100%									FWRR/% (female worm reduction rate) (Schistosoma japonicum): 71%; Mice without ♀ worm (Schistosoma japonicum): 0/7; WRR/% (worm reduction rate) (Schistosoma japonicum): 62%; MTWB/x ± SD (mean total worm burden) (Schistosoma japonicum; control 26.6 ± 4.2): 10.1 ± 4.4
OC(c1cc(C(F)(F)F)nc2c(C(F)(F)F)cccc12)C1CCCCN1 (stereo not shown) [MFQ, mefloquine, reference compound]				5.4 mg/kg	6.8 mg/kg	2%	98%	100%	100%	28.0 days								IC50 ([6]; Plasmodium falciparum, read-out: IC50 (ng/ml) NF54): 5 ng/mL (≈ 13.2 nM); Activity (%) 3 mg/kg SSV po ([7]; percent reduction in parasitemia day 3 post-infection, single 3 mg/kg po in SSV): 9%; Survival (days) 3 mg/kg SSV po ([7]; single 3 mg/kg po in SSV): 6.3 days; Survival (days) 10 mg/kg SSV po ([7]; single 10 mg/kg po in SSV): 17 days; onset of action (decline in parasitemia) ([8]; single 100 mg/kg po (SSV), parasitemia monitored 12, 24, 48 h after treatment): slow onset of action; ED50 ([3]; Plasmodium berghei, read-out: ED50): 4 mg/kg; Survival (days) p.o. SSV (P. berghei ANKA strain [4]; [11]): 6.2 days; Survival (days) p.o. SSV (P. berghei ANKA strain [4]; [12]): 12 days; Prophylactic Activity (%) (P. berghei ANKA strain [5]; single 100 mg/kg po 48 h before infection): 99.92%; Prophylactic Activity (%) (P. berghei ANKA strain [5]; single 100 mg/kg po 72 h before infection): 99.97%; duration of prophylactic protection (P. berghei ANKA strain [5]; single 100 mg/kg po before infection): 3 days
O=C(C[C@H]1CC[C@]2(CC1)OOC1(O2)C2CC3CC(C2)CC1C3)NO (stereo partly shown) [OZ175]				6.2 mg/kg	9.9 mg/kg					13.0 days	1.4 ng/mL (≈ 4.15 nM)	2.0 ng/mL (≈ 5.93 nM)						ED50 [3]: 3.5 mg/kg
NC(=O)CNC[C@H]1CC[C@]2(CC1)OOC1(O2)C2CC3CC(C2)CC1C3 (stereo partly shown) [OZ256]	86%	85%	10%								0.3 ng/mL (≈ 0.856 nM)	0.2 ng/mL (≈ 0.571 nM)						Activity (%) po ([7]; percent reduction in parasitemia day 3 post-infection, single 10 mg/kg po in 3% ethanol and 7% Tween 80, mice): 99.70%; Activity (%) sc ([7]; percent reduction in parasitemia day 3 post-infection, single 10 mg/kg sc in 3% ethanol and 7% Tween 80, mice): 99.95%; Activity (%) SSVpo ([7]; percent reduction in parasitemia day 3 post-infection, single po dose in standard suspending vehicle (SSV), mice): 99.67%; Survival (days) po ([7]; single 10 mg/kg po in 3% ethanol and 7% Tween 80, untreated control 5.6 ± 0.3): 8.7 days; Survival (days) sc ([7]; single 10 mg/kg sc in 3% ethanol and 7% Tween 80, untreated control 5.6 ± 0.3): 9.7 days; Survival (days) SSVpo ([7]; single po dose in SSV, untreated control 5.6 ± 0.3): 8.7 days; adult worms at day 49, per os 400 mg/kg, DEAD WORM (%) [2]: 19%; IV t1/2 (10 mg/kg) (dosing in rats; IV 10 mg/kg): 1.57 h; Oral Bioavailability 10 mg/kg (dosing in rats; oral 10 mg/kg): 18.6%; Oral Bioavailability 25 mg/kg (dosing in rats; oral 25 mg/kg): 51.9%; Oral t1/2 (25 mg/kg) (dosing in rats; oral 25 mg/kg): 1.22 h; IV t1/2 (10 mg/kg) (dosing in dogs; IV 10 mg/kg): 1.42 h; Oral t1/2 (10 mg/kg) (dosing in dogs; oral 10 mg/kg): 1.38 h; Oral Bioavailability 10 mg/kg (dosing in dogs; oral 10 mg/kg, OZ 279, OZ 256, OZ 209 values flagged (V)): 42.0%; Oral Bioavailability 25 mg/kg (dosing in dogs; oral 25 mg/kg, OZ 279, OZ 256, OZ 209 values flagged (V)): 38.3%
CC(C)(N)CNC(=O)CC1CCC2(CC1)OOC1(O2)C2CC3CC(C2)CC1C3.O=C(O)CCC(=O)O (stereo not shown) [Succinate]													Stable	Crystalline	˜150 μm	Stable	Stable	
CC(C)(N)CNC(=O)CC1CCC2(CC1)OOC1(O2)C2CC3CC(C2)CC1C3.Cc1ccc(S(=O)(=O)O)cc1 (stereo not shown) [Tosylate]													Stable	Crystalline	˜50 μm	Stable	Stable	

Source: US6906205B2, “Spiro and dispiro 1,2,4-trioxolane antimalarials” (Medicines for Malaria Venture MMV, priority 2002, dated 2005)
